# Experimental data from patent US20100267561A1, “HERBICIDAL PYRIDAZINONE DERIVATIVES” (priority 2007, published 2010).
# Assays:
# Format in all cases: in vivo
# [1] = test system: Italian ryegrass (Lolium multiflorum); experiment: Test B pre-/postemergence plant response; details: for Ryegrass, Italian plant response rating: 8 g ai/ha
# Procedure, shortened: (§1)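 Preemergence and postemergence (plants 2-18 cm, 1- to 4-leaf stage) applications used test chemicals in a non-phytotoxic solvent with surfactant. Plants were held in a greenhouse 13 to 15 days, then rated visually against controls on a 0-100 scale (0 no effect, 100 complete control).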
# [2] = test system: bermudagrass (Cynodon dactylon); experiment: Test B pre-/postemergence plant response; details: for Bermudagrass plant response rating: 8 g ai/ha
# Procedure, shortened: as §1
# [3] = test system: common (oilseed) sunflower (Helianthus annuus); experiment: Test B pre-/postemergence plant response; details: Preemergence
# Procedure, shortened: as §1
# [4] = test system: downy bromegrass (Bromus tectorum); experiment: Test B pre-/postemergence plant response; details: for Bromegrass, Downy plant response rating: 8 g ai/ha
# Procedure, shortened: as §1
# [5] = test system: giant foxtail (Setaria faberii); experiment: Test B pre-/postemergence plant response; details: for Foxtail, Giant plant response rating: 8 g ai/ha
# Procedure, shortened: as §1
# [6] = test system: lambsquarters (Chenopodium album); experiment: Test B pre-/postemergence plant response; details: for Lambsquarters plant response rating: 8 g ai/ha
# Procedure, shortened: as §1
# [7] = test system: morningglory (Ipomoea coccinea); experiment: Test B pre-/postemergence plant response; details: for Morningglory plant response rating: 8 g ai/ha
# Procedure, shortened: as §1
# [8] = test system: pigweed (Amaranthus retroflexus); experiment: Test B pre-/postemergence plant response; details: for Pigweed plant response rating: 8 g ai/ha
# Procedure, shortened: as §1
# soybean (Glycine max) = experiment: Test B pre-/postemergence plant response; details: for Soybean plant response rating: 8 g ai/ha
# Procedure, shortened: as §1
# [9] = test system: surinam grass (Brachiaria decumbens); experiment: Test B pre-/postemergence plant response; details: for Surinam Grass plant response rating: 8 g ai/ha
# Procedure, shortened: as §1
# [10] = test system: wheat (Triticum aestivum); experiment: Test B pre-/postemergence plant response; details: for Wheat plant response rating: 8 g ai/ha
# Procedure, shortened: as §1
# [11] = test system: canarygrass (Phalaris minor); experiment: Test B postemergence plant response; details: Postemergence
# Procedure, shortened: (§2)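 Compounds applied after emergence to 2–18 cm plants; response read visually 13–15 days later on 0 (none) to 100 (complete control); a dash marks no result.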
# [12] = test system: chickweed (Stellaria media); experiment: Test B postemergence plant response; details: for Plant response rating, Chickweed: Postemergence
# Procedure, shortened: as §2
# [13] = test system: windgrass (Apera spica-venti); experiment: Test B postemergence plant response; details: for Plant response rating, Windgrass: Postemergence
# Procedure, shortened: as §2
# [14] = test system: winter barley (Hordeum vulgare); experiment: Test B postemergence plant response; details: Postemergence, scale 0 to 100, 0 no effect, 100 complete control
# Procedure, shortened: as §2
# [15] = Postemergence, 16 g ai/ha, scale 0 to 100
# [16] = Postemergence, 31 g ai/ha, scale 0 to 100, 0 no effect, 100 complete control
# [17] = Postemergence, 62 g ai/ha, scale 0 to 100, 0 no effect, 100 complete control
# [18] = Preemergence, 16 g ai/ha, scale 0 to 100 (0 no effect, 100 complete control)
# [19] = Preemergence, 31 g ai/ha, scale 0 to 100 (0 no effect, 100 complete control)
# [20] = Preemergence, 62 g ai/ha, scale 0 to 100
# [21] = Preemergence, 31 g ai/ha, 0 to 100 scale, 0 no effect, 100 complete control
# [22] = Preemergence, 62 g ai/ha, 0 to 100 scale, 0 no effect, 100 complete control
# [23] = 31 g ai/ha, scale 0 to 100, 0 no effect, 100 complete control
# [24] = 62 g ai/ha, scale 0 to 100, 0 no effect, 100 complete control
# [25] = 8 g ai/ha, postemergence, 0-100 scale
smiles,measurement,setting,value
CCc1cc(-c2ccc(Cl)cc2)nn1-c1c(OC(=O)OC(C)C)cnn(C)c1=O [Compound 41],"Ryegrass, Italian plant response rating","[1]; postemergence, 0-100 scale",90
same,"Plant response rating, Ryegrass, Italian",[1]; [15],98
same,"Plant response rating, Ryegrass, Italian",[1]; [16],100
same,"Plant response rating, Ryegrass, Italian",[1]; [17],100
same,"Plant response rating, Ryegrass, Italian",[1]; [18],85
same,"Plant response rating, Ryegrass, Italian",[1]; [19],100
same,"Plant response rating, Ryegrass, Italian",[1]; [20],100
same,"Ryegrass, Italian plant response rating","[1]; Preemergence, scale 0 to 100",85
same,Bermudagrass plant response rating,"[2]; postemergence, 0-100 scale",0
same,"Plant response rating, Bermudagrass",[2]; [15],0
same,"Plant response rating, Bermudagrass",[2]; [16],25
same,"Plant response rating, Bermudagrass",[2]; [17],95
same,Bermudagrass plant response rating,"[2]; Preemergence, scale 0 to 100 (0 no effect, 100 complete control)",0
same,"Plant response rating, Bermudagrass",[2]; [18],0
same,"Plant response rating, Bermudagrass",[2]; [21],0
same,"Plant response rating, Bermudagrass",[2]; [20],0
same,"Plant response rating, Sunflower","[3]; 16 g ai/ha, scale 0 to 100 (0 no effect, 100 complete control)",0
same,"Plant response rating, Sunflower","[3]; 31 g ai/ha, scale 0 to 100 (0 no effect, 100 complete control)",0
same,"Plant response rating, Sunflower","[3]; 62 g ai/ha, scale 0 to 100",0
same,Sunflower plant response rating,"[3]; 8 g ai/ha, scale 0 to 100",0
same,"Bromegrass, Downy plant response rating","[4]; postemergence, 0-100 scale",30
same,"Plant response rating, Bromegrass, Downy",[4]; [15],50
same,"Plant response rating, Bromegrass, Downy",[4]; [16],60
same,"Plant response rating, Bromegrass, Downy",[4]; [17],85
same,"Plant response rating, Bromegrass, Downy",[4]; [18],70
same,"Plant response rating, Bromegrass, Downy",[4]; [21],75
same,"Plant response rating, Bromegrass, Downy",[4]; [20],80
same,"Bromegrass, Downy plant response rating","[4]; Preemergence, scale 0 to 100",70
same,"Foxtail, Giant plant response rating","[5]; postemergence, 0-100 scale",100
same,"Plant response rating, Foxtail, Giant",[5]; [15],100
same,"Plant response rating, Foxtail, Giant",[5]; [16],100
same,"Plant response rating, Foxtail, Giant",[5]; [17],100
same,"Plant response rating, Foxtail, Giant",[5]; [18],0
same,"Plant response rating, Foxtail, Giant",[5]; [21],0
same,"Plant response rating, Foxtail, Giant",[5]; [20],98
same,"Foxtail, Giant plant response rating","[5]; Preemergence, scale 0 to 100",0
same,Lambsquarters plant response rating,"[6]; postemergence, 0-100 scale",0
same,"Plant response rating, Lambsquarters",[6]; [15],0
same,"Plant response rating, Lambsquarters",[6]; [16],0
same,"Plant response rating, Lambsquarters",[6]; [17],0
same,"Plant response rating, Lambsquarters",[6]; [18],0
same,"Plant response rating, Lambsquarters",[6]; [21],0
same,"Plant response rating, Lambsquarters",[6]; [20],0
same,Lambsquarters plant response rating,"[6]; Preemergence, scale 0 to 100",0
same,Morningglory plant response rating,"[7]; postemergence, 0-100 scale",0
same,"Plant response rating, Morningglory",[7]; [15],0
same,"Plant response rating, Morningglory",[7]; [16],0
same,"Plant response rating, Morningglory",[7]; [17],0
same,"Plant response rating, Morningglory",[7]; [18],0
same,"Plant response rating, Morningglory",[7]; [19],0
same,"Plant response rating, Morningglory",[7]; [20],0
same,Morningglory plant response rating,"[7]; Preemergence, scale 0 to 100",0
same,Pigweed plant response rating,"[8]; postemergence, 0-100 scale",0
same,"Plant response rating, Pigweed",[8]; [15],0
same,"Plant response rating, Pigweed",[8]; [16],0
same,"Plant response rating, Pigweed",[8]; [17],0
same,"Plant response rating, Pigweed",[8]; [18],0
same,"Plant response rating, Pigweed",[8]; [19],0
same,"Plant response rating, Pigweed",[8]; [20],0
same,Pigweed plant response rating,"[8]; Preemergence, scale 0 to 100",0
same,Soybean plant response rating,"soybean (Glycine max); postemergence, 0-100 scale",0
same,"Plant response rating, Soybean",soybean (Glycine max); [15],0
same,"Plant response rating, Soybean",soybean (Glycine max); [17],0
same,"Plant response rating, Soybean",soybean (Glycine max); [18],0
same,"Plant response rating, Soybean",soybean (Glycine max); [19],0
same,"Plant response rating, Soybean",soybean (Glycine max); [20],0
same,Soybean plant response rating,"soybean (Glycine max); Preemergence, scale 0 to 100",0
same,Surinam Grass plant response rating,"[9]; postemergence, 0-100 scale",100
same,"Plant response rating, Surinam Grass",[9]; [15],100
same,"Plant response rating, Surinam Grass",[9]; [17],100
same,"Plant response rating, Surinam Grass",[9]; [18],40
same,"Plant response rating, Surinam Grass",[9]; [19],55
same,"Plant response rating, Surinam Grass",[9]; [22],100
same,Surinam Grass plant response rating,"[9]; Preemergence, scale 0 to 100",0
same,Wheat plant response rating,"[10]; postemergence, 0-100 scale",80
same,"Plant response rating, Wheat",[10]; [15],85
same,"Plant response rating, Wheat",[10]; [17],85
same,"Plant response rating, Wheat",[10]; [18],15
same,"Plant response rating, Wheat",[10]; [19],60
same,"Plant response rating, Wheat",[10]; [22],100
same,Wheat plant response rating,"[10]; Preemergence, scale 0 to 100",10
same,"Plant response rating, Canarygrass","[11]; 16 g ai/ha, scale 0 to 100",0
same,"Plant response rating, Canarygrass",[11]; [23],0
same,"Plant response rating, Canarygrass",[11]; [24],0
same,Chickweed plant response rating,[12]; [25],0
same,"Plant response rating, Chickweed","[12]; 16 g ai/ha, scale 0 to 100",0
same,"Plant response rating, Chickweed",[12]; [23],0
same,"Plant response rating, Chickweed",[12]; [24],0
same,Windgrass plant response rating,[13]; [25],30
same,"Plant response rating, Windgrass","[13]; 16 g ai/ha, scale 0 to 100",60
same,"Plant response rating, Windgrass",[13]; [24],85
same,"Plant response rating, Barley",[14]; 16 g ai/ha,0
same,"Plant response rating, Barley",[14]; 31 g ai/ha,0
same,"Plant response rating, Barley",[14]; 62 g ai/ha,0
